The NIST ThermoML archive (doi:10.1021/je0501639)

Legend:
[1] = refractive index (Na D-line) (dimensionless); xn = mol fraction of the nth substance listed; details: 100.8 kPa, Liquid, Standard Abbe refractometry
[2] = xn = mol fraction of the nth substance listed; details: 100.8 kPa, Liquid

CC(C)(C)O [2-methylpropan-2-ol] + CCO
Details | mass density, 298.15 K [kg/m3] | mass density, 308.15 K [kg/m3] | mass density, 318.15 K [kg/m3] | refractive index, 298.15 K | refractive index, 308.15 K | refractive index, 318.15 K
[1], x2 = 0 | – | – | – | 1.38481 | 1.3796 | 1.37416
[1], x2 = 0.05 | – | – | – | 1.38427 | 1.37911 | 1.37378
[1], x2 = 0.1 | – | – | – | 1.38367 | 1.37861 | 1.37336
[1], x2 = 0.15 | – | – | – | 1.38294 | 1.37797 | 1.37284
[1], x2 = 0.2 | – | – | – | 1.38213 | 1.37726 | 1.37224
[1], x2 = 0.25 | – | – | – | 1.38123 | 1.37648 | 1.3715
[1], x2 = 0.3 | – | – | – | 1.38027 | 1.37558 | 1.37072
[1], x2 = 0.35 | – | – | – | 1.37923 | 1.37463 | 1.36984
[1], x2 = 0.4 | – | – | – | 1.37813 | 1.3736 | 1.36891
[1], x2 = 0.45 | – | – | – | 1.37698 | 1.37253 | 1.36791
[1], x2 = 0.5 | – | – | – | 1.37576 | 1.37136 | 1.36682
[1], x2 = 0.55 | – | – | – | 1.37449 | 1.37013 | 1.36567
[1], x2 = 0.6 | – | – | – | 1.37312 | 1.36883 | 1.36442
[1], x2 = 0.65 | – | – | – | 1.37171 | 1.36741 | 1.36304
[1], x2 = 0.7 | – | – | – | 1.37018 | 1.36593 | 1.36162
[1], x2 = 0.75 | – | – | – | 1.36859 | 1.36438 | 1.36007
[1], x2 = 0.8 | – | – | – | 1.3669 | 1.36271 | 1.35848
[1], x2 = 0.85 | – | – | – | 1.36515 | 1.36096 | 1.35677
[1], x2 = 0.9 | – | – | – | 1.36332 | 1.35914 | 1.35498
[1], x2 = 0.95 | – | – | – | 1.36137 | 1.3572 | 1.35308
[2], x2 = 0 | 780.99 | 770.7 | 760.05 | – | – | –
[2], x2 = 0.05 | 782.27 | 772.23 | 761.94 | – | – | –
[2], x2 = 0.1 | 782.82 | 772.95 | 762.82 | – | – | –
[2], x2 = 0.15 | 783.19 | 773.6 | 763.53 | – | – | –
[2], x2 = 0.2 | 783.47 | 774.03 | 764.14 | – | – | –
[2], x2 = 0.25 | 783.65 | 774.34 | 764.59 | – | – | –
[2], x2 = 0.3 | 783.81 | 774.62 | 765.01 | – | – | –
[2], x2 = 0.35 | 783.94 | 774.87 | 765.41 | – | – | –
[2], x2 = 0.4 | 784.03 | 775.07 | 765.74 | – | – | –
[2], x2 = 0.45 | 784.11 | 775.29 | 766.04 | – | – | –
[2], x2 = 0.5 | 784.18 | 775.45 | 766.31 | – | – | –
[2], x2 = 0.55 | 784.29 | 775.61 | 766.58 | – | – | –
[2], x2 = 0.6 | 784.32 | 775.68 | 766.72 | – | – | –
[2], x2 = 0.65 | 784.4 | 775.77 | 766.87 | – | – | –
[2], x2 = 0.7 | 784.42 | 775.85 | 767.01 | – | – | –
[2], x2 = 0.75 | 784.49 | 775.93 | 767.15 | – | – | –
[2], x2 = 0.8 | 784.62 | 776.07 | 767.27 | – | – | –
[2], x2 = 0.85 | 784.75 | 776.18 | 767.41 | – | – | –
[2], x2 = 0.9 | 784.86 | 776.28 | 767.51 | – | – | –
[2], x2 = 0.95 | 785.02 | 776.4 | 767.6 | – | – | –

viscosity [mPa·s], [2], Falling or rolling sphere viscometry
Details | 298.15 K | 308.15 K | 318.15 K
x2 = 0 | 4.43 | 2.622 | 1.708
x2 = 0.05 | 4.295 | 2.587 | 1.73
x2 = 0.1 | 4.135 | 2.536 | 1.719
x2 = 0.15 | 3.949 | 2.463 | 1.698
x2 = 0.2 | 3.752 | 2.374 | 1.662
x2 = 0.25 | 3.552 | 2.277 | 1.618
x2 = 0.3 | 3.348 | 2.18 | 1.568
x2 = 0.35 | 3.134 | 2.082 | 1.515
x2 = 0.4 | 2.905 | 1.978 | 1.456
x2 = 0.45 | 2.668 | 1.877 | 1.395
x2 = 0.5 | 2.462 | 1.772 | 1.332
x2 = 0.55 | 2.272 | 1.675 | 1.272
x2 = 0.6 | 2.097 | 1.575 | 1.213
x2 = 0.65 | 1.934 | 1.475 | 1.153
x2 = 0.7 | 1.782 | 1.38 | 1.092
x2 = 0.75 | 1.644 | 1.291 | 1.032
x2 = 0.8 | 1.518 | 1.206 | 0.974
x2 = 0.85 | 1.4 | 1.126 | 0.919
x2 = 0.9 | 1.285 | 1.048 | 0.862
x2 = 0.95 | 1.188 | 0.976 | 0.805

CC(C)(C)O [2-methylpropan-2-ol] + CC(C)CC(C)(C)C
Details | mass density, 298.15 K [kg/m3] | mass density, 308.15 K [kg/m3] | mass density, 318.15 K [kg/m3] | refractive index, 298.15 K | refractive index, 308.15 K | refractive index, 318.15 K | viscosity, 298.15 K [mPa·s] | viscosity, 308.15 K [mPa·s] | viscosity, 318.15 K [mPa·s]
[1], x1 = 0.05 | – | – | – | 1.38834 | 1.38325 | 1.37818 | – | – | –
[1], x1 = 0.1 | – | – | – | 1.38784 | 1.38271 | 1.37755 | – | – | –
[1], x1 = 0.15 | – | – | – | 1.38735 | 1.38219 | 1.37703 | – | – | –
[1], x1 = 0.2 | – | – | – | 1.38693 | 1.38177 | 1.37655 | – | – | –
[1], x1 = 0.25 | – | – | – | 1.3865 | 1.38135 | 1.37611 | – | – | –
[1], x1 = 0.3 | – | – | – | 1.38612 | 1.38095 | 1.3757 | – | – | –
[1], x1 = 0.35 | – | – | – | 1.38573 | 1.38055 | 1.37528 | – | – | –
[1], x1 = 0.4 | – | – | – | 1.38537 | 1.38021 | 1.37491 | – | – | –
[1], x1 = 0.45 | – | – | – | 1.38505 | 1.37986 | 1.37458 | – | – | –
[1], x1 = 0.5 | – | – | – | 1.38473 | 1.37955 | 1.37427 | – | – | –
[1], x1 = 0.55 | – | – | – | 1.38445 | 1.37926 | 1.37397 | – | – | –
[1], x1 = 0.6 | – | – | – | 1.3842 | 1.37903 | 1.37371 | – | – | –
[1], x1 = 0.65 | – | – | – | 1.38398 | 1.37881 | 1.37348 | – | – | –
[1], x1 = 0.7 | – | – | – | 1.38381 | 1.37862 | 1.37331 | – | – | –
[1], x1 = 0.75 | – | – | – | 1.38371 | 1.3785 | 1.37317 | – | – | –
[1], x1 = 0.8 | – | – | – | 1.38368 | 1.37847 | 1.37313 | – | – | –
[1], x1 = 0.85 | – | – | – | 1.38381 | 1.37858 | 1.37323 | – | – | –
[1], x1 = 0.9 | – | – | – | 1.38405 | 1.37879 | 1.37339 | – | – | –
[1], x1 = 0.95 | – | – | – | 1.38436 | 1.37914 | 1.37372 | – | – | –
[1], x1 = 1 | – | – | – | 1.38481 | 1.3796 | 1.37416 | – | – | –
[2], x1 = 0.05 | 689.77 | 681.15 | 672.12 | – | – | – | 0.483 | 0.425 | 0.377
[2], x1 = 0.1 | 691.89 | 683.25 | 674.11 | – | – | – | 0.509 | 0.449 | 0.4
[2], x1 = 0.15 | 694.45 | 685.62 | 676.56 | – | – | – | 0.515 | 0.447 | 0.394
[2], x1 = 0.2 | 697.14 | 688.28 | 679.2 | – | – | – | 0.553 | 0.478 | 0.413
[2], x1 = 0.25 | 700.02 | 691.11 | 681.96 | – | – | – | 0.564 | 0.48 | 0.42
[2], x1 = 0.3 | 703.12 | 694.14 | 684.92 | – | – | – | 0.598 | 0.522 | 0.449
[2], x1 = 0.35 | 706.4 | 697.38 | 688.11 | – | – | – | 0.614 | 0.523 | 0.45
[2], x1 = 0.4 | 709.87 | 700.8 | 691.43 | – | – | – | 0.665 | 0.564 | 0.48
[2], x1 = 0.45 | 713.52 | 704.42 | 694.99 | – | – | – | 0.698 | 0.59 | 0.504
[2], x1 = 0.5 | 717.43 | 708.24 | 698.77 | – | – | – | 0.765 | 0.633 | 0.542
[2], x1 = 0.55 | 721.62 | 712.37 | 702.81 | – | – | – | 0.805 | 0.672 | 0.564
[2], x1 = 0.6 | 726.19 | 716.85 | 707.21 | – | – | – | 0.912 | 0.726 | 0.614
[2], x1 = 0.65 | 731.11 | 721.69 | 711.98 | – | – | – | 0.984 | 0.786 | 0.649
[2], x1 = 0.7 | 736.55 | 727.03 | 717.21 | – | – | – | 1.107 | 0.866 | 0.706
[2], x1 = 0.75 | 742.44 | 732.81 | 722.88 | – | – | – | 1.297 | 0.994 | 0.798
[2], x1 = 0.8 | 748.88 | 739.1 | 729.03 | – | – | – | 1.557 | 1.14 | 0.889
[2], x1 = 0.85 | 755.87 | 745.89 | 735.65 | – | – | – | 1.895 | 1.332 | 1.028
[2], x1 = 0.9 | 763.54 | 753.43 | 743.04 | – | – | – | 2.426 | 1.622 | 1.164
[2], x1 = 0.95 | 771.9 | 761.62 | 751.07 | – | – | – | 3.172 | 2.02 | 1.398
[2], x1 = 1 | 780.99 | 770.7 | 760.05 | – | – | – | 4.43 | 2.622 | 1.708
